Laboratory results reported in patent publication US9532980B2, “Methods for the treatment of A-β related disorders and compositions therefor” (The Rockefeller University, priority 2006, dated 2017).

How the values were obtained:
[1] = test system: Aβ40 and Aβ42 peptide production in N2A-APP695 cells transiently expressing CK1ε-271; assay: Aβ40/Aβ42 ELISA in N2A-APP695 cells transiently expressing constitutively active CK1ε-271; type: cell-based; details: for effect on Aβ40 and Aβ42 peptide concentration/production: increasing concentrations, 3 hours incubation, ELISA
Experimental: (§1) N2A-APP695 cells are plated in 12-well dishes at a density of 3×10^5 cells per well in DMEM/Opti-MEM medium containing 5% Fetal Bovine Serum (FBS) following manufacturer's instructions (American Type Culture Collection).=For the time-course experiments, cells are exposed to drugs for 1-24 h.
Transfection: Transfection of N2A-APP695 cells is performed by standard methods. Cells are grown to 60% confluence and then transfected with relevant constructs with FUGENE6 according to the manufacturer's protocol (Roche Applied Bioscience). After transfection, cells are recovered with 100 μl of RIPA buffer, incubated for 30 min on ice, and centrifuged at 13,000 rpm 20 min at 4° C. The supernatants are collected and submitted to BCA (Pierce) quantification accordingly to manufacturer's instructions. Equal amounts of cell extracts are loaded onto 4-12% Bis-Tris acrylamide gels (Invitrogen) with MES buffer and subjected to western blot analysis using appropriate antibodies. For immunoprecipitation assays, media are incubated with antibody 4G8 (Signet) to detect Aβ and full length βAPP. Drugs are added to cell cultures in fresh medium (0.5% fetal bovine serum); media and cells are collected at the relevant time.
N2A cells stably expressing APP-695 are transiently transfected with CK1ε-271. 48 hours post-transfection, cells are incubated in the absence or presence of increasing concentrations of CK1 inhibitor IC261. Cell supernatants are collected after 3 hours of incubation and subjected to Aβ40/Aβ42 ELISA assays. […] In order to exclude non-specific effects of IC261, two other CK1 inhibitors, CKI-7 and D4476 are tested.

[2] = test system: N2A-APP695 cells; assay: Cell viability: lactate dehydrogenase release into media (CytoTox96 kit); type: cell-based
Excerpt: To exclude the possibility that the inhibitory effects on Aβ peptide production are due to cellular toxicity, we investigated the effects of the drugs on cell viability. Media are collected and tested for the level of lactate dehydrogenase, a stable cytosolic enzyme released upon cell lysis, using a non-radioactive CytoTox96 kit (Promega). Values obtained from drug treated cells are compared with values obtained with DMSO and non-treated cells. No toxicity is observed for CKI-7, even after 24 hours of incubation and for the highest concentration tested (50 μM). A slight toxicity (less than 1-fold) is observed for D4476, only for the higher dose tested (50 μM) and only after 24 hours of incubation.

[3] = test system: Notch cleavage; assay: mNotchΔE Notch-1 cleavage assay in N2A cells (western blot, NICD); type: cell-based; details: N2A cells over-expressing mNotchΔE, 3 hours
Experimental: mNotchΔE Transfection and Notch-1 Cleavage Assays in N2A-APP695 Cells: N2A cells stably overexpressing APP Swedish mutant are transiently transfected to overexpress mNotchE (truncated Notch-1, lacking most of the Notch extracellular domain (Kopan, R., et al. (1996) Proc Natl Acad Sci USA 93, 1683-8). Cultures are preincubated with the different inhibitors for 3 hours. mNotchΔE is detected in cell lysates by western blot analysis using the Cleaved Notch 1 antibody (NICD) available from Cell Signaling.
Several protein kinases and protein phosphatases have been implicated in the progression of Alzheimer's disease and especially in the regulation of β-amyloid formation. These include the protein kinases PKA, PKC, GSK3-β and CDK5, and the protein phosphatases PP1/PP2A and PP2B. […] Unfortunately, these effects are associated with increased carcinogenic risk. […] We therefore investigated the effect of CK1 inhibitors on Notch processing. Briefly, N2A cells transiently transfected with N-terminally truncated mNotchΔE-myc cDNA containing plasmid are incubated with 1, 10 μM concentrations of DAPT, 1,10 μM concentrations of L-685,458, 5, 50 μM concentrations of D4476 or 1, 10 μM concentrations of Gleevec for 3 hours. Cell lysates are analysed by conventional SDS-PAGE analysis and western blotting using anti-Notch (NICD cleavage product), anti-Aβ, anti-myc and anti-actin antibodies.

[4] = test system: Aβ peptide production in N2A cells expressing APP-695; assay: Endogenous Aβ peptide production in N2A cells expressing APP-695 (sandwich ELISA, immunoprecipitation/western blot); type: cell-based; details: for decrease for Aβ40 peptide / decrease for Aβ42 peptide: 50 μM, three hours, N2A cells expressing APP-695
Experimental: as §1
2003 Oct. 14; 100(21):12444-9.
We next investigated the effect of the three different classes of CK1 inhibitors CKI-7, IC-261, and D4476 (Chijiwa, T., et al. (1989) J Biol Chem 264, 4924-7; Mashhoon, N., et al. (2000) J Biol Chem 275, 20052-60; Rena, G., et al. (2004) EMBO Rep 5, 60-5) on Aβ peptide production in N2A cells expressing APP-695.

[5] = test system: APP, βCTF and Aβ40 peptide levels in N2A-APP695 cells; assay: APP, βCTF and Aβ40 levels in N2A-APP695 cells (western blot, Aβ40 ELISA); details: 50 μM, 3 hours
Experimental: Aβ quantification: After immobilization of total Aβ (coated monoclonal antibody specific for the N-terminus of Aβ from media, Aβ40/42 peptide determinations are made by sandwich ELISA (BioSource International) using rabbit polyclonal antibodies specific for the C-terminus of Aβ40 or Aβ42. In all cases, Aβ levels are normalized to total protein levels.
The effects of D4476 on APP, βCTF and Aβ40 peptide levels in N2A-APP695 cells are compared. N2A cells are incubated for 3 hours with 0, 1, 5 or 50 μM concentrations of D4476. Cellular extracts are subjected to western blotting analysis using βCTF or APP antibodies, or to Aβ40 ELISA assays. […] Data for at least three experiments (mean±S.E.M.) are compared (Prism) with the control conditions (no drug).

[6] = test system: CK1; details: Rena et al. (2004) EMBO Rep 5, 60-5; cited from earlier work
[7] = test system: APP-C99 in N2A cells; assay: C99 breakdown and Aβ production in N2A cells transiently transfected with APP-C99; details: 3 hours
Experimental: Cellular extracts are subjected to western blotting analysis using βCTF or APP antibodies, or to Aβ40 ELISA assays. N2A cells are transiently transfected with a APP-C99 containing plasmid. […] Cell lysates are analyzed by SDS-PAGE and western blotting analysis or by Aβ40 ELISA assay. Data for at least three experiments (mean±S.E.M.) are compared (Prism) with the control conditions (no drug).

[8] = CK1ε-271 over-expressing N2A-APP695 cells

Row | SMILES | effect on Aβ40 and Aβ42 peptide concentration/production [1, 8] | Notch cleavage [3] | decrease for Aβ40 peptide [4] [%] | decrease for Aβ42 peptide [4] [%] | further results
1 | NCCNS(=O)(=O)c1ccc(Cl)c2ccncc12 [CKI-7] | significant and dose-dependent reduction | not affected | 14.8 | 24 | toxicity (lactate dehydrogenase release) ([2]; 24 hours of incubation, highest concentration tested (50 μM)): No toxicity
2 | NC(=O)c1ccc(-c2nc(-c3ccc4c(c3)OCCO4)c(-c3ccccn3)[nH]2)cc1 [D4476, 4-(4-(2,3-dihydrobenzo[1,4]dioxin-6-yl)-5-pyridin-2-yl-1H-imidazol-2-yl)benzamide] | significant and dose-dependent reduction | not affected | 42 | 54.1 | toxicity (lactate dehydrogenase release), fold ([2]; slight toxicity only at 50 μM and only after 24 hours, compared with DMSO and non-treated cells): less than 1 fold; APP expression level [5]: no effect; Aβ peptide production [5]: considerably reduces; βCTF levels [5]: significantly increases; concentration required to observe an effect on CK1 activity in cell lines [6]: 50 µM; lowest concentration at which effects on C99 breakdown and Aβ production are apparent [7]: 5 µM; Aβ peptide production ([7]; various concentrations): decreased Aβ peptide production in a dose dependent manner; breakdown of C99 ([7]; various concentrations): inhibited the breakdown of C99
3 | C[C@H](NC(=O)Cc1cc(F)cc(F)c1)C(=O)N[C@H](C(=O)OC(C)(C)C)c1ccccc1 [DAPT] | – | total inhibition | – | – | –
4 | COc1cc(OC)c(/C=C2/C(=O)Nc3ccccc32)c(OC)c1 [IC261, (3E)-3-[(2,4,6-trimethoxyphenyl)methylidene]-1 H-indol-2-one] | dramatic reduction | not affected | 48 | 52.4 | concentration at which the effect on Aβ40/Aβ42 is near maximum ([1]; CK1ε-271 over-expressing N2A-APP695 cells, 3 hours): 5 µM; time dependence of the reduction of Aβ40 and Aβ42 peptide concentration ([1]; longer exposure gives greater reduction): time-dependent effect; toxicity (lactate dehydrogenase release) ([2]; after 12 hours of incubation): No effect on toxicity
5 | NC(=O)c1ccc(-c2nc(-c3ccc4c(c3)OCO4)c(-c3ccccn3)[nH]2)cc1 [SB-431542, 4-(4-(benzo[1,3]dioxol-5-yl)-5-pyridin-2-yl-1H-imidazol-2-yl)benzamide] | – | – | – | – | properties on Aβ peptide formation compared with D4476 [4]: very comparable properties
